Columns and labels:
S. typhimurium TA102 = settings: Salmonella typhimurium
SH-SY5Y = system: SH-SY5Y; set-up: method as in PMID 28756263; settings: cited from earlier work
S. typhimurium TA100 = settings: 7i 40 µg/plate
[1] = system: dizocilpine-induced learning deficits; test: Dizocilpine-induced learning deficits, Y-maze spontaneous alternation; assay type: in vivo, male Swiss mice
Protocol: The activity of compound 7i was evaluated in regard to its ability to reverse dizocilpine-induced learning deficits. Two behavioral tests were performed by Amylgen (Montferrier-sur-Lez, France) on male Swiss mice (aged 6–9 weeks). All compounds (7i and controls) were intraperitoneally injected.
Animals were tested for spontaneous alternation performance in the Y-maze, an index of spatial working memory. Made of grey polyvinylchloride, the Y-maze has an arm which is 40 cm long, 13 cm high and 3 cm wide at the bottom and 10 cm wide at the top, converging at an equal angle. Each mouse was placed at the end of one arm and allowed to move freely through the maze during an 8-min session. The series of arm entries, including possible returns into the same arm, were checked visually. An alternation was defined as entries into all three arms on consecutive occasions. The number of maximum alternations was therefore the total number of arm entries minus two, and the percentage of alternation was calculated as: (actual alternations/maximum alternations) × 100. Parameters included the percentage of alternation (memory index) and the total number of arm entries (exploration index). Animals showing extreme behavior (alternation < 20% or >90% or number of arm entries < 10) are usually discarded from the calculations. […] Step-through latency (the latency in time spent to enter the dark compartment) and the number of vocalizations were recorded. […] Step-through latency was recorded up to 300 s. When either the mouse entered the dark compartment or 300 s had elapsed (they were therefore manually placed in it), escape latency (latency to exit from the dark compartment) was recorded with a value of up to 300 s. […]

S. typhimurium TA98 = test: Ames test; settings: 7i 40 µg/plate
CYP1A2 = test: CYP induction in human hepatocytes (mRNA, qPCR); assay type: in vitro ADME; settings: 10 µM
Protocol: (§1) The compound was classically evaluated at 10 µM for all the ADME analyses. Bidirectional permeability (apical A to basolateral B pH 6.5/7.4 and basolateral B to apical A pH 7.4/6.5) was assessed in the epithelial colorectal adenocarcinoma cell line (Caco-2 cell line). Results were expressed as × 10^−6cm/s (Papp) and as % recovery. Efflux ratio, i.e., Papp(B-A)/Papp(A-B), was calculated. Plasma protein binding was analyzed by HPLC-MS/MS after 4-h incubation at 37 °C, as described by Banker et al.. Concentration was evaluated by LC/MS-MS. CYP inhibition was performed in human liver microsomes as described in [61]. Analysis of the respective metabolites. was performed by HPLC-MS/MS. Transporter inhibition analysis was also performed in overexpressing cell lines. Respective metabolites for each specific transporter substrate were analyzed by fluorometry or scintillation counting and % inhibition of control values were calculated. P-glycoprotein transporter substrate assessment was performed by bidirectional permeability analysis (apical A to basolateral B pH 7.4/7.4 and basolateral B to apical A pH 7.4/7.4) in the Caco-2 cell line with and without verapamil, as described in [59]. Results were expressed as ×10^−6 cm/s (Papp) and as % recovery. The efflux ratio, i.e., Papp(B-A)/Papp(A-B), was calculated. CYP450 induction characterization was performed on human hepatocytes. The mRNA levels of 7 different CYPs were analyzed by qPCR, as described in [72]. The compound was evaluated at 1, 10 and 100 µM. Fold-induction values were determined and compared to cut-off values, as defined for each CYP isozyme in each hepatocyte lot.

CYP3A4 = test: CYP induction in human hepatocytes (mRNA, qPCR); assay type: in vitro ADME; settings: 10 µM
Protocol: as §1

CYP2B6 = test: CYP induction in human hepatocytes (mRNA, qPCR); assay type: in vitro ADME; settings: 10 µM
Protocol: as §1

Caco-2 cell line = test: Bidirectional permeability in Caco-2 (pH 6.5/7.4); assay type: in vitro ADME, human; settings: Papp(B-A)/Papp(A-B), pH 6.5/7.4
Protocol: as §1

[2] = +S9, positive control 2-anthramine 0.5

CN(CCCNC(=O)c1ccc(Cl)cc1)Cc1ccccc1 [compound 7i]
Ames TA102 +S9 (Mean revertants/well per title) (S. typhimurium TA102): 1.0
Ames TA102 −S9 (Mean revertants/well per title) (S. typhimurium TA102): 0.7
Inhibition SH-SY5Y (% at 100 µM) (SH-SY5Y; 100 µM): 28%
cytotoxicity (SH-SY5Y): no cytotoxicity
Ames TA100 +S9 (Mean revertants/well per title) (S. typhimurium TA100; [2]): 0.9
Ames TA100 −S9 (Mean revertants/well per title) (S. typhimurium TA100; −S9, positive control MNNG 0.25): 0.9
dizocilpine-induced learning deficits, Y-maze spontaneous alternation ([1]; 0.5 mg/kg i.p., dizocilpine 0.15 mg/kg): significantly attenuated
beneficial effect in Y-maze with NE-100 treatment ([1]; plus NE-100 at 3 mg/kg i.p.): prevented
Ames TA98 +S9 (Mean revertants/well per title) (S. typhimurium TA98; [2]): 1.1
Ames TA98 −S9 (Mean revertants/well per title) (S. typhimurium TA98; −S9, positive control 2-nitrofluorene 0.5): 1.1
modulation of CYP1A2 (induction, conclusion) (CYP1A2; three donors): No modulation
CYPs induction CYP1A2, donor #1 (CYP1A2; donor #1, cut-off (2)): 2.7%
CYPs induction CYP1A2, donor #2 (CYP1A2; donor #2, cut-off (5)): 1.5%
CYPs induction CYP1A2, donor #3 (CYP1A2; donor #3, cut-off (2)): 1.9%
modulation of CYP3A4 (induction, conclusion) (CYP3A4; three donors): No modulation
CYPs induction CYP3A4, donor #1 (CYP3A4; donor #1, cut-off (4)): 4.2%
CYPs induction CYP3A4, donor #2 (CYP3A4; donor #2, cut-off (6)): 1.6%
CYPs induction CYP3A4, donor #3 (CYP3A4; donor #3, cut-off (3)): 0.8%
modulation of CYP2B6 (induction, conclusion) (CYP2B6; three donors): No modulation
CYPs induction CYP2B6, donor #1 (CYP2B6; donor #1, cut-off (3)): 4.1%
CYPs induction CYP2B6, donor #2 (CYP2B6; donor #2, cut-off (4)): 4.1%
CYPs induction CYP2B6, donor #3 (CYP2B6; donor #3, cut-off (2)): 4.2%
e-ratio (efflux ratio) (Caco-2 cell line): 2.3

From publication PMC9569529, “Safe and Efficient Sigma1 Ligand: A Potential Drug Candidate for Multiple Sclerosis” (International Journal of Molecular Sciences, 2022)
